# From US20230416679A1, “METHODS AND COMPOSITIONS FOR IN-VITRO AUGMENTATION OF MILK PRODUCTION FROM MAMMARY EPITHELIAL CELLS” (Wilk Technologies International Ltd., priority 2021, published 2023)
# Entries after “also recorded” stand apart in the source; their conditions may differ.
# Key:
# Assay type in all cases: cell-based
# [1] = tested on: primary culture of bovine mammary epithelial cells; assay: Intracellular triglyceride content in cell lysates (lipid extraction, HPLC-ELSD); conditions: for intracellular triglyceride content: 24 h of treatment (FIG. 7)
# Source text: For all the experiments, primary culture of bovine mammary epithelial cells were used. The cells were isolated from 3 lactating Holstein cows according to an established protocol (Cohen et al., 2015 supra). Study protocols were in compliance with the regulations of the Israeli Ministry of Health, under the supervision of the Department for Control of Animal Products, State of Israel Ministry of Agriculture Rural Development Veterinary Services and Animal Health. Certificate Nu: #80. After isolation, 60,000 cells were plated in a 35-mm plastic dish on glass cover slips for all florescence staining experiments. For production analysis, 150,000 cells were plated in a 60-mm plastic dish for lipids, protein, and lactose extraction. Oxygen consumption assay was performed by using Seahorse system (Agilent, USA); cells were plated in 24-well plate (20,000 cells/well) and incubated with DMEM/F12, with 0.15% (v/v) bovine serum albumin and insulin (1 μg/ml), hydrocortisone (0.5 μg/ml) and prolactin (1 μg/ml) for 48 h to induce lactogenic response. Then cells were treated with three different P. lentiscus extracts: ethyl acetate, hexane and chloroform, according to the protocol that was used before (Azaizeh et al., 2013). The extracts were diluted with DMEM/F12 medium supplemented with Dimethyl Sulfoxide (DMSO) in a final concentration of 0.1% for better dissolution of the extractions. […] The treatment was given in the presence of insulin (1 μg/ml), hydrocortisone (0.5 μg/ml) and prolactin (1 μg/ml). […] Otherwise, cells were fixed for florescence staining or plates taken to seahorse for oxygen consumption rate measurement.
# After treatment, total lipids were extracted from harvested cells and from collected medium. The medium or the cells were diluted by 20 times Folch reagent (Chloroform-Methanol 2:1). After overnight incubation with cold extraction at 4° C., the upper phase was removed, and the lower phase was filtered through glass wool. Samples were then evaporated under a nitrogen stream at 65° C., diluted in 100 μl chloroform:methanol (97:3, v/v) and stored at −20° C. until injection for HPLC analysis. […] Quantification was performed against external standard curves and expressed as μg/per 10^6 live cells or as weight % out of the sum of phospholipids (μg) in the sample. Live cell number was determined with a hemocytometer after 5 min of trypan blue staining. […]
# Cells were incubated with 360 uM oleic acid (O) with or without 1.2 mM beta hydroxybutyrate (BHBA, H). The concentration of triglyceride was measured in cell lysates.
# [2] = tested on: primary culture of bovine mammary epithelial cells; assay: Intracellular lipid droplets fluorescence staining (Nile red / DAPI)
# Source text: For all the experiments, primary culture of bovine mammary epithelial cells were used. The cells were isolated from 3 lactating Holstein cows according to an established protocol (Cohen et al., 2015 supra). Study protocols were in compliance with the regulations of the Israeli Ministry of Health, under the supervision of the Department for Control of Animal Products, State of Israel Ministry of Agriculture Rural Development Veterinary Services and Animal Health. Certificate Nu: #80. After isolation, 60,000 cells were plated in a 35-mm plastic dish on glass cover slips for all florescence staining experiments. […] After 24 h of incubation, medium was collected for triglyceride and phospholipid quantification, and cells were harvested for cell counting, lipid, lactose or protein extraction. […] Cover slips were then rinsed four times with PBS and mounted with fluorescence mounting medium (Dako, North America Inc., Carpinteria, CA). Slides were visualized with an Olympus BX40 fluorescence microscope equipped with an Olympus DP73 digital camera using CellSens Entry software (version 1.7, Olympus). Lipid droplet diameter was measured using ImageJ software (version 1.48, NIH, Bethesda, MD). […] The effect of oleic acid on accumulation of fat in primary culture of mammary epithelial cells was determined using Nile red staining (red). […]
# [3] = tested on: primary culture of bovine mammary epithelial cells; assay: Milk protein (casein, whey) secretion to the medium (HPLC-UV)
# Source text: For all the experiments, primary culture of bovine mammary epithelial cells were used. The cells were isolated from 3 lactating Holstein cows according to an established protocol (Cohen et al., 2015 supra). Study protocols were in compliance with the regulations of the Israeli Ministry of Health, under the supervision of the Department for Control of Animal Products, State of Israel Ministry of Agriculture Rural Development Veterinary Services and Animal Health. Certificate Nu: #80. After isolation, 60,000 cells were plated in a 35-mm plastic dish on glass cover slips for all florescence staining experiments. For production analysis, 150,000 cells were plated in a 60-mm plastic dish for lipids, protein, and lactose extraction. Oxygen consumption assay was performed by using Seahorse system (Agilent, USA); cells were plated in 24-well plate (20,000 cells/well) and incubated with DMEM/F12, with 0.15% (v/v) bovine serum albumin and insulin (1 μg/ml), hydrocortisone (0.5 μg/ml) and prolactin (1 μg/ml) for 48 h to induce lactogenic response. Then cells were treated with three different P. lentiscus extracts: ethyl acetate, hexane and chloroform, according to the protocol that was used before (Azaizeh et al., 2013). The extracts were diluted with DMEM/F12 medium supplemented with Dimethyl Sulfoxide (DMSO) in a final concentration of 0.1% for better dissolution of the extractions. Oleic acid was added to the treatment medium at a final concentration of […] to increase fat (triglycerol) synthesis to better enable the visualization of intracellular lipid droplets. The treatment was given in the presence of insulin (1 μg/ml), hydrocortisone (0.5 μg/ml) and prolactin (1 μg/ml). After 24 h of incubation, medium was collected for triglyceride and phospholipid quantification, and cells were harvested for cell counting, lipid, lactose or protein extraction. Otherwise, cells were fixed for florescence staining or plates taken to seahorse for oxygen consumption rate measurement. After treatment, 0.5 ml cultured medium was collected to HPLC equipped with UV detector. Protein content was determined in 220 nm wavelength by C-18 reverse phase column. Identification and quantification were determined by constructing a calibration curve of external standard of known protein concentrations which dissolved in a 50 mM phosphate buffer (PH=6.7). Identification for α casein, β casein and α lactalbumin were qualified as caseins (α and β casein) and whey (a lactalbumin) protein. Positive values indicate increased protein content whereas negative values indicate decreased protein content.
# [4] = tested on: primary culture of bovine mammary epithelial cells; assay: Milk lactose secretion to the medium (HPLC, refractive index detector)
# Source text: For all the experiments, primary culture of bovine mammary epithelial cells were used. The cells were isolated from 3 lactating Holstein cows according to an established protocol (Cohen et al., 2015 supra). Study protocols were in compliance with the regulations of the Israeli Ministry of Health, under the supervision of the Department for Control of Animal Products, State of Israel Ministry of Agriculture Rural Development Veterinary Services and Animal Health. Certificate Nu: #80. After isolation, 60,000 cells were plated in a 35-mm plastic dish on glass cover slips for all florescence staining experiments. For production analysis, 150,000 cells were plated in a 60-mm plastic dish for lipids, protein, and lactose extraction. […] After 24 h of incubation, medium was collected for triglyceride and phospholipid quantification, and cells were harvested for cell counting, lipid, lactose or protein extraction. […] After treatment, 0.5 ml medium was collected to be analyzed using HPLC equipped with a refractive index detector at 68° C. […] Identification and quantification were determined by establishing a calibration curve of external standard of a known lactose concentration dissolved in water. […]
# [5] = tested on: primary culture of bovine mammary epithelial cells; assay: Triglyceride / fat secreted to the medium by mammary epithelial cells (Nile red staining, HPLC-ELSD)
# Source text: For all the experiments, primary culture of bovine mammary epithelial cells were used. The cells were isolated from 3 lactating Holstein cows according to an established protocol (Cohen et al., 2015 supra). Study protocols were in compliance with the regulations of the Israeli Ministry of Health, under the supervision of the Department for Control of Animal Products, State of Israel Ministry of Agriculture Rural Development Veterinary Services and Animal Health. Certificate Nu: #80. After isolation, 60,000 cells were plated in a 35-mm plastic dish on glass cover slips for all florescence staining experiments. For production analysis, 150,000 cells were plated in a 60-mm plastic dish for lipids, protein, and lactose extraction. […] After 24 h of incubation, medium was collected for triglyceride and phospholipid quantification, and cells were harvested for cell counting, lipid, lactose or protein extraction. […]
# After treatment, total lipids were extracted from harvested cells and from collected medium. […] Quantification was performed against external standard curves and expressed as μg/per 10^6 live cells or as weight % out of the sum of phospholipids (μg) in the sample. Live cell number was determined with a hemocytometer after 5 min of trypan blue staining. […]
compound,measurement,setting,value
"CC(O)CC(=O)O (stereo not drawn) [BHBA, β-hydroxybutirate]",triglyceride content in the cells,"[1]; 1.2 mM BHBA added to 360 uM oleic acid, 48 hours, cell lysates",~90 ug/10^6 cells
O=C(O)c1cc(O)c(O)c(O)c1 [gallic acid],size of the intracellular lipid droplets,[2]; gallic acid added to MEC primary culture (FIG. 6),increased
same,intracellular triglyceride content,[1],did not affect
same,protein secretion compared to control,"[3]; 2 ppm, P=0.98",did not change
same,lactose secretion,[4],increases
"O=c1c(O)c(-c2cc(O)c(O)c(O)c2)oc2cc(O)cc(O)c12 [myricetin, Myricetin]",triglyceride secretion,[5],can increase
same,intracellular triglyceride content,[1],did not affect
same,"casein secretion, higher than control","[3]; 1 ppm, P<0.05, FIG. 7C",126%
same,"whey secretion, higher than control","[3]; 1 ppm, P=0.05, FIG. 7D",124%
same,increase of casein and whey secretion compared with control,"[3]; between about 0.5 ppm and about 2.5 ppm, for example 1 ppm",30%
same,lactose secretion,[4],can increase
CCCCCCCC/C=C\CCCCCCCC(=O)O [oleic acid],fat content (triglyceride) in medium collected from cells compared with control,"[5]; 100 uM oleic acid in the presence of BSA, 24 h, Nile red",higher; also recorded: increases
same,oleic acid concentration at which toxic effect is evident,"[2]; primary MEC, Nile red / Dapi staining (FIG. 2)",over 1 mM
same,increase of triglyceride content in the cells,"[1]; 360 uM oleic acid, 48 hours, cell lysates",4 fold
